{"source": "paper PMC11435058", "about": "“Synthesis of New Thiazole-Privileged Chalcones as Tubulin Polymerization Inhibitors with Potential Anticancer Activities” (Pharmaceuticals, 2024)", "key": {"SK-MEL-5": {"system": "SK-MEL-5", "assay": "NCI-60 anticancer screen (SRB; single dose and five doses)", "conditions": "Homo sapiens, SK-MEL-5, read-out: TGI"}, "IGROV1": {"system": "IGROV1", "assay": "NCI-60 anticancer screen (SRB; single dose and five doses)", "conditions": "Homo sapiens"}, "OVCAR-4": {"system": "OVCAR-4", "assay": "NCI-60 anticancer screen (SRB; single dose and five doses)", "conditions": "Homo sapiens"}, "OVCAR-5": {"system": "OVCAR-5", "assay": "NCI-60 anticancer screen (SRB; single dose and five doses)", "conditions": "Homo sapiens"}, "OVCAR-8": {"system": "OVCAR-8", "assay": "NCI-60 anticancer screen (SRB; single dose and five doses)", "conditions": "Homo sapiens"}, "NCI/ADR-RES": {"system": "NCI/ADR-RES", "assay": "NCI-60 anticancer screen (SRB; single dose and five doses)", "conditions": "Homo sapiens"}, "SK-OV-3": {"system": "SK-OV-3", "assay": "NCI-60 anticancer screen (SRB; single dose and five doses)", "conditions": "Homo sapiens"}, "CAKI-1": {"system": "CAKI-1", "assay": "NCI-60 anticancer screen (SRB; single dose and five doses)", "conditions": "Homo sapiens"}, "TK-10": {"system": "TK-10", "assay": "NCI-60 anticancer screen (SRB; single dose and five doses)", "conditions": "Homo sapiens"}, "UO-31": {"system": "UO-31", "assay": "NCI-60 anticancer screen (SRB; single dose and five doses)", "conditions": "Homo sapiens"}, "DU-145": {"system": "DU-145", "assay": "NCI-60 anticancer screen (SRB; single dose and five doses)", "conditions": "Homo sapiens"}, "MCF7": {"system": "MCF7", "assay": "NCI-60 anticancer screen (SRB; single dose and five doses)", "conditions": "Homo sapiens"}, "MDA-MB-231/ATCC": {"system": "MDA-MB-231/ATCC", "assay": "NCI-60 anticancer screen (SRB; single dose and five doses)", "conditions": "Homo sapiens"}, "HS 578T": {"system": "HS 578T", "assay": "NCI-60 anticancer screen (SRB; single dose and five doses)", "conditions": "Homo sapiens"}, "CCRF-CEM": {"system": "CCRF-CEM", "assay": "NCI-60 anticancer screen (SRB; single dose 10 μM and five doses)", "conditions": "Homo sapiens"}, "[1]": {"conditions": "48 h, read-out: Growth Percentage"}}}
{"smiles": "Cc1[nH]c(=S)sc1C(=O)/C=C/c1ccc(Cl)cc1", "note": "[2f, (E)-3-(4-Chlorophenyl)-1-(4-Methyl-2-Thioxo-2,3-Dihydrothiazol-5-yl)Prop-2-En-1-One]", "values": [{"measurement": "IC (TGI)", "setting": "SK-MEL-5", "value": 23.4, "unit": "µM"}, {"measurement": "GI50", "setting": "IGROV1; IGROV-1", "value": 13.2, "unit": "µM"}, {"measurement": "IC50", "setting": "IGROV1; IGROV-1", "value": 25.7, "unit": "µM"}, {"measurement": "CC50", "setting": "IGROV1; IGROV-1, read-out: LC50", "value": 93.3, "unit": "µM"}, {"measurement": "IC (TGI)", "setting": "IGROV1; IGROV-1, read-out: TGI", "value": 34.7, "unit": "µM"}, {"measurement": "GI50", "setting": "OVCAR-4; OVCAR-4", "value": 13.8, "unit": "µM"}, {"measurement": "IC50", "setting": "OVCAR-4; OVCAR-4", "value": 25.1, "unit": "µM"}, {"measurement": "activity at 10 µM", "setting": "OVCAR-4; OVCAR-4, 48 h, read-out: Growth Percentage", "value": 76.3, "unit": "%"}, {"measurement": "CC50", "setting": "OVCAR-4; OVCAR-4, read-out: LC50", "value": 55, "unit": "µM"}, {"measurement": "IC (TGI)", "setting": "OVCAR-4; OVCAR-4, read-out: TGI", "value": 27.5, "unit": "µM"}, {"measurement": "GI50", "setting": "OVCAR-5; OVCAR-5", "value": 17.8, "unit": "µM"}, {"measurement": "IC50", "setting": "OVCAR-5; OVCAR-5", "value": 32.4, "unit": "µM"}, {"measurement": "activity at 10 µM", "setting": "OVCAR-5; OVCAR-5, 48 h, read-out: Growth Percentage", "value": 50.8, "unit": "%"}, {"measurement": "CC50", "setting": "OVCAR-5; OVCAR-5, read-out: LC50", "value": 60.3, "unit": "µM"}, {"measurement": "IC (TGI)", "setting": "OVCAR-5; OVCAR-5, read-out: TGI", "value": 33.1, "unit": "µM"}, {"measurement": "GI50", "setting": "OVCAR-8; OVCAR-8", "value": 8.51, "unit": "µM"}, {"measurement": "IC50", "setting": "OVCAR-8; OVCAR-8", "value": 14.5, "unit": "µM"}, {"measurement": "activity at 10 µM", "setting": "OVCAR-8; OVCAR-8, 48 h, read-out: Growth Percentage", "value": 4.96, "unit": "%"}, {"measurement": "CC50", "setting": "OVCAR-8; OVCAR-8, read-out: LC50", "value": 55, "unit": "µM"}, {"measurement": "IC (TGI)", "setting": "OVCAR-8; OVCAR-8, read-out: TGI", "value": 22.9, "unit": "µM"}, {"measurement": "GI50", "setting": "NCI/ADR-RES", "value": 3.72, "unit": "µM"}, {"measurement": "IC50", "setting": "NCI/ADR-RES", "value": 7.08, "unit": "µM"}, {"measurement": "activity at 10 µM", "setting": "NCI/ADR-RES; [1]", "value": -8.39, "unit": "%"}, {"measurement": "CC50", "setting": "NCI/ADR-RES; read-out: LC50", "value": 77.6, "unit": "µM"}, {"measurement": "IC (TGI)", "setting": "NCI/ADR-RES; read-out: TGI", "value": 17.4, "unit": "µM"}, {"measurement": "GI50", "setting": "SK-OV-3; SK-OV-3", "value": 15.8, "unit": "µM"}, {"measurement": "IC50", "setting": "SK-OV-3; SK-OV-3", "value": 30.2, "unit": "µM"}, {"measurement": "activity at 10 µM", "setting": "SK-OV-3; SK-OV-3, 48 h, read-out: Growth Percentage", "value": 60.8, "unit": "%"}, {"measurement": "CC50", "setting": "SK-OV-3; SK-OV-3, read-out: LC50", "value": 66.1, "unit": "µM"}, {"measurement": "IC (TGI)", "setting": "SK-OV-3; SK-OV-3, read-out: TGI", "value": 32.4, "unit": "µM"}, {"measurement": "GI50", "setting": "CAKI-1; CAKI-1", "value": 4.47, "unit": "µM"}, {"measurement": "IC50", "setting": "CAKI-1; CAKI-1", "value": 8.71, "unit": "µM"}, {"measurement": "activity at 10 µM", "setting": "CAKI-1; CAKI-1, 48 h, read-out: Growth Percentage", "value": 53.2, "unit": "%"}, {"measurement": "CC50", "setting": "CAKI-1; CAKI-1, read-out: LC50", "value": 43.6, "unit": "µM"}, {"measurement": "IC (TGI)", "setting": "CAKI-1; CAKI-1, read-out: TGI", "value": 17.4, "unit": "µM"}, {"measurement": "GI50", "setting": "TK-10; TK-10", "value": 15.1, "unit": "µM"}, {"measurement": "IC50", "setting": "TK-10; TK-10", "value": 28.2, "unit": "µM"}, {"measurement": "activity at 10 µM", "setting": "TK-10; TK-10, 48 h, read-out: Growth Percentage", "value": 40.4, "unit": "%"}, {"measurement": "CC50", "setting": "TK-10; TK-10, read-out: LC50", "value": 55, "unit": "µM"}, {"measurement": "IC (TGI)", "setting": "TK-10; TK-10, read-out: TGI", "value": 28.8, "unit": "µM"}, {"measurement": "GI50", "setting": "UO-31; UO-31", "value": 4.07, "unit": "µM"}, {"measurement": "IC50", "setting": "UO-31; UO-31", "value": 11.2, "unit": "µM"}, {"measurement": "activity at 10 µM", "setting": "UO-31; UO-31, 48 h, read-out: Growth Percentage", "value": 30.4, "unit": "%"}, {"measurement": "IC (TGI)", "setting": "UO-31; UO-31, read-out: TGI", "value": 18.2, "unit": "µM"}, {"measurement": "GI50", "setting": "DU-145; DU-145", "value": 4.9, "unit": "µM"}, {"measurement": "IC50", "setting": "DU-145; DU-145", "value": 8.91, "unit": "µM"}, {"measurement": "activity at 10 µM", "setting": "DU-145; DU-145, 48 h, read-out: Growth Percentage", "value": 7.29, "unit": "%"}, {"measurement": "CC50", "setting": "DU-145; DU-145, read-out: LC50", "value": 42.7, "unit": "µM"}, {"measurement": "IC (TGI)", "setting": "DU-145; DU-145, read-out: TGI", "value": 17.4, "unit": "µM"}, {"measurement": "GI50", "setting": "MCF7; MCF7", "value": 3.16, "unit": "µM"}, {"measurement": "IC50", "setting": "MCF7; MCF7", "value": 4.68, "unit": "µM"}, {"measurement": "activity at 10 µM", "setting": "MCF7; MCF7, 48 h, read-out: Growth Percentage", "value": 4.86, "unit": "%"}, {"measurement": "CC50", "setting": "MCF7; MCF7, read-out: LC50", "value": 43.6, "unit": "µM"}, {"measurement": "IC (TGI)", "setting": "MCF7; MCF7, read-out: TGI", "value": 13.2, "unit": "µM"}, {"measurement": "GI50", "setting": "MDA-MB-231/ATCC; MDA-MB-231", "value": 16.2, "unit": "µM"}, {"measurement": "IC50", "setting": "MDA-MB-231/ATCC; MDA-MB-231", "value": 30.9, "unit": "µM"}, {"measurement": "activity at 10 µM", "setting": "MDA-MB-231/ATCC; MDA-MB-231, 48 h, read-out: Growth Percentage", "value": 39.3, "unit": "%"}, {"measurement": "CC50", "setting": "MDA-MB-231/ATCC; MDA-MB-231, read-out: LC50", "value": 61.7, "unit": "µM"}, {"measurement": "IC (TGI)", "setting": "MDA-MB-231/ATCC; MDA-MB-231, read-out: TGI", "value": 31.6, "unit": "µM"}, {"measurement": "GI50", "setting": "HS 578T", "value": 21.4, "unit": "µM"}, {"measurement": "IC50", "setting": "HS 578T", "value": "> 100", "unit": "µM"}, {"measurement": "activity at 10 µM", "setting": "HS 578T; [1]", "value": 48, "unit": "%"}, {"measurement": "CC50", "setting": "HS 578T; read-out: LC50", "value": "> 100", "unit": "µM"}, {"measurement": "IC (TGI)", "setting": "HS 578T; read-out: TGI", "value": 77.6, "unit": "µM"}, {"measurement": "GI50", "setting": "CCRF-CEM", "value": 2.88, "unit": "µM"}, {"measurement": "activity at 10 µM", "setting": "CCRF-CEM; [1]", "value": 3.18, "unit": "%"}, {"measurement": "IC50", "setting": "CCRF-CEM; five doses", "value": 2.88, "unit": "µM"}, {"measurement": "IC50", "setting": "CCRF-CEM; five-dose, Leukemia CCRF-CEM", "value": 3.98, "unit": "µM"}, {"measurement": "IC (TGI)", "setting": "CCRF-CEM; read-out: TGI", "value": 11.2, "unit": "µM"}]}
